# In patent US20240366611A1, “METHODS OF TREATING A DISEASE OR DISORDER” (Ascentage Pharma (Suzhou) Co., Ltd., priority 2021, published 2024):
# Assays:
# Format in all cases: cell-based
# Conditions in all cases: 7 days of treatment
# [1] = tested on: HBG mRNA in human CD34+ HSC; assay: HBG mRNA level in human CD34+ HSC (qRT-PCR)
# Procedure: (§1) Human cord blood CD34+ hematopoietic stem cells (HSC) were first expanded in the expansion medium (StemSpan SFEM II+StemSpan CD34 Expansion Supplement) to achieve the desired number of cells, and then differentiated in differentiation medium (StemSpan SFEM II+StemSpan Erythroid Expansion Supplement (100×)) for three days without drug treatment. Various concentrations of Cpd. 73 were added on the fourth day of differentiation and further incubated with the cells for another 7 days. 33 mM Hydroxyurea was used as the control.
# After 7 days of treatment, the cells were collected. Total RNA was isolated using Trizol LS reagent (Invitrogen-10296028) and 1 μg RNA of each sample was reverse transcribed into cDNA using High Capacity cDNA Reverse Transcription Kit (AB (Applied Biosystems)-4374966), according to the manufacturer's instructions. Quantitative RT-PCR (qRT-PCR) was performed using an Applied Biosystems QuantStudio 7 Flex system with the primer pairs shown as below: hHBG-mRNA-F1 (5′-[…]-3′) and hHBG-mRNA-R1 (5′-TCACTCAGCTGGGCAAAGG-3′). […] The HBG mRNA level were 1.09-, 2.49-, 7.84-, 9.69- and 12.2-folds of the vehicle group when the cells were treated with 0.01 μM, 0.03 μM, 0.1 μM, 0.3 μM and 1.0 μM Cpd. 73 respectively. […] 73 which increased HBG mRNA by 12.2 folds (p<0.0001, vs. vehicle). The HBG mRNA level of cells treated with 33 mM Hydroxyurea, an approved medicine for SCD, was 6.46-folds of the vehicle group.
# [2] = tested on: HbF in human CD34+ HSC; assay: HbF concentration in human CD34+ HSC by ELISA; parameters: HbF concentration, folds of the vehicle group: dose or concentration left out as unconfirmed
# Procedure: as §1
# After 7 days of treatment, the cells were collected and lysed. The concentration of HbF in the cell lysate was determined using a Human Fetal Hemoglobin (HBF) ELISA Kit (MyBioSource, MBS2024474). […] The cellular HbF concentration were 1.27-, 1.39-, 1.52-, 1.58- and 1.69-folds of the vehicle group when the cells were treated with 0.01 μM, 0.03 μM, 0.1 μM, 0.3 μM and 1.0 μM Cpd. 73 respectively. […] 73 where the cellular HbF concentration was 1.69-folds of the vehicle group (p<0.01). HbF concentration of cells treated with 33 mM Hydroxyurea was 1.18-folds of the vehicle group. Clinically, small increases of HbF concentration (1-5%) have the potential to provide clinical benefits to all SCD patients.
# [3] = tested on: HbF+ cells in human CD34+ HSC; assay: HbF+ cell % in human CD34+ HSC by FACS
# Procedure: as §1
# After 7 days of treatment, the cells were collected and stained with PE-conjugated Mouse Anti-Human Fetal Hemoglobin (BD, 560041). The percentage of HbF+ cells were quantified by FACS. […] 73 respectively. […] 73 where HbF+ cell % was 2.58-folds of the vehicle group (p<0.0001). The % of HbF+ cells was 1.82-folds of the vehicle group when the cells were treated with 33 mM Hydroxyurea.
smiles,measurement,setting,value
"NC(=O)NO [Hydroxyurea, reference compound]","HBG mRNA level, folds of the vehicle group",[1],6.46 folds
same,"HbF concentration, folds of the vehicle group",[2],1.18 folds
same,"% of HbF+ cells, folds of the vehicle group",[3],1.82 folds
